Laboratory results taken from US20090234023A1, “SUBSTITUTED HYDROXYACETOPHENONE DERIVATIVES” (Riemser Arzneimittel AG, priority 2004, published 2009).
Values after ≈ are worked out from the molar mass of the structure shown. Read-outs that look alike come from different tables or passages of the source.

What was measured:
[1] = tested on: human cancer cell lines NCI-460, MCF-7, NCI-ADR, UACC-62, K-562, HT-29, 786-0, OVCAR-3, PC-3; assay: SRB test, all tested human cancer cell lines (FIGS. 1-6)
Method: (§2) The tests were carried out with the following human cancer cell lines:
(§3) The cells were cultivated in 25 ml cell culture flasks (Nunc) with 5 ml RPMI 1640 (Gibco BRL, Life Technologies) with 5% of foetal bovine serum.
(§4) The adhering cells were trypsinised (0.5 ml trypsin, Nuticell Nutrientes Cellulares). The trypsin was then inactivated by adding 5 ml 5% serum in RPMI 1640. A single cell suspension was prepared by pipetting carefully, the cells were counted, dilutions with an appropriate cell density, varying according to the cell line, were prepared and 100 μl/well were seeded in 96-well microtitre plates. The microtitre plates were pre-incubated for 24 hours at 37° C. to stabilise the cultures. The cells were incubated for 48 hours at 37° C. and 5% CO2 with 100 μl of the dilutions of the test substances (0.25; 2.5; 25 and 250 μg/ml, in three-fold). Doxirubicin (Sigma Chemical Co.) and tamoxifen (Sigma Chemical Co.) served as positive controls.
(§5) The sulforhodamine B (SRB) test for the antiproliferative activity was carried out according to the specifications of Skehan et al. (Journal of National Cancer Institute Vol. 82, pp. 1107-1118, 1990). The cells were fixed for one hour at 4° C. by protein precipitation with 50% trichloroacetic acid (TCA, Sigma Chemicals Co.) (50 μl/well, final concentration 10%)). The supernatant was discarded and the plates were washed with tap water five times. The cells were dyed for 30 minutes with 0.4% SRB in 1% acetic acid (50 μl/well) and subsequently washed four times with 1% acetic acid in order to remove the non-bound dye. The plates were dried and the bound dye was solubilised with 150 μl/well 10 mM Trizma buffer (Sigma Chemicals Co.). The optical density was determined with an automated plate reader (Molecular Devices Max Microplate Reader) at 540 nm. All determinations were conducted as threefold determination. The optical density was calculated with the Excel® program (Microsoft Office Package).

E. faecium = assay: Antimicrobial test (MIC), microtitre plates, TTC stain; assay type: cell-based; settings: Enterococcus faecium, 48 h, 36° C.
Method: (§1) The inoculum for the tests was prepared by diluting the microorganisms in 0.85% NaCl, the dilution was set to level 0.5 according to McFarland and checked at 580 nm in the spectrophotometer. The cell suspensions were diluted to 10^4 UFC/ml for the application in the tests. The MIC tests were carried out according to the instructions of J. N. P. Eloff (Planta Medica Vol. 64, pp. 711-713, 1998)) in microtitre plates with 96 wells. […] The inoculum (100 μl) was placed in all wells and the plates were incubated for 48 h at a temperature of 36° C. The antimicrobial activity was detected by adding 20 μl of a 0.5% aqueous solution of TTC (tetrazolium chloride, Merck) per well. The minimal inhibition concentration (MIC) was defined as the lowest concentration of the compound that inhibited visible growth (indicated by TTC stain).

B. subtilis = assay: as above; assay type: cell-based; settings: Bacillus subtilis, 48 h, 36° C.
Method: as §1

Salmonella choterasuis = assay: as above; assay type: cell-based; settings: Salmonella choterasuis (Tables 3, 4: Salmonella), 48 h, 36° C.
Method: as §1

S. epidermides = assay: as above; assay type: cell-based; settings: 48 h
Method: as §1

Micrococcus luteus = assay: as above; assay type: cell-based; settings: 48 h, 36° C.
Method: as §1

Rhodococcus equi = assay: as above; assay type: cell-based; settings: Rhodococcus (subgen. Prescottella) equi, 48 h, 36° C.
Method: as §1

Escherichia coli = assay: as above; assay type: cell-based; settings: 48 h, 36° C.
Method: as §1

S. falcium = assay: as above; assay type: cell-based; settings: 48 h, 36° C.
Method: as §1

Staphylococcus aureus = assay: as above; assay type: cell-based; settings: 48 h, 36° C.
Method: as §1

Candida albicans = assay: as above; assay type: cell-based; settings: 48 h, 36° C.
Method: as §1

E. falcium = assay: as above; assay type: cell-based; settings: 48 h, 36° C.
Method: as §1

Lung NCI-460 = settings: for ED50 (effective dosage which killed 50% of the human cancer cells): NCI460, 48 hours incubation; for cytocidal activity: NCI-460 (lung cancer cell line)
Method: as §2, §3, §4, §5

[2] = tested on: skin cancer (melanoma) UACC-62; settings: for ED50 (effective dosage which killed 50% of the human cancer cells): UACC62, 48 hours incubation
Method: as §2, §3, §4, §5

mamma (breast) MCF-7 = settings: MCF7, 48 hours incubation
Method: as §2, §3, §4
The sulforhodamine B (SRB) test for the antiproliferative activity was carried out according to the specifications of Skehan et al. (Journal of National Cancer Institute Vol. 82, pp. 1107-1118, 1990). […] The optical density was determined with an automated plate reader (Molecular Devices Max Microplate Reader) at 540 nm. […] The optical density was calculated with the Excel® program (Microsoft Office Package).

WI38 (fibroblasts) = assay: Comparison test on non-pathogenic line; settings: WI38, non-pathogenic line for comparison

## CC(=O)c1ccc(OCC=C(C)C)cc1OCC=C(C)C [2,4O, 1-[2,4-bis(3-methylbut-2-enyloxy)phenyl]ethanone]
[1]; against all tested cell lines
  concentration at which cytocidal activity begins: 250 µg/mL
  concentration at which cytostatic activity begins: 25 µg/mL
E. faecium
  MIC: 500 to 1000 µg/mL (≈ 1730 to 3470 µM)
B. subtilis
  MIC: 500 to 1000 µg/mL (≈ 1730 to 3470 µM)
Salmonella choterasuis
  MIC: 500 to 1000 µg/mL (≈ 1730 to 3470 µM)
S. epidermides
  MIC: 500 to 1000 µg/mL (≈ 1730 to 3470 µM)
Micrococcus luteus
  MIC: 500 to 1000 µg/mL (≈ 1730 to 3470 µM)
Rhodococcus equi
  MIC: 500 to 1000 µg/mL (≈ 1730 to 3470 µM)
Escherichia coli
  MIC: 500 to 1000 µg/mL (≈ 1730 to 3470 µM)
S. falcium
  MIC: 500 to 1000 µg/mL (≈ 1730 to 3470 µM)
Staphylococcus aureus
  MIC: 500 to 1000 µg/mL (≈ 1730 to 3470 µM)
Candida albicans
  MIC: 500 to 1000 µg/mL (≈ 1730 to 3470 µM)

## O=C(N[C@H](CO)[C@H](O)c1ccc([N+](=O)[O-])cc1)C(Cl)Cl [Chloramphenicol, reference compound]
E. faecium
  MIC: 120 µg/mL (≈ 371 µM)
E. falcium
  MIC: 120 µg/mL (≈ 371 µM)
B. subtilis
  MIC: 20 µg/mL (≈ 61.9 µM)
Salmonella choterasuis
  MIC: 60 µg/mL (≈ 186 µM)
S. epidermides; S. epidermides, 36° C., read-out: MIC
  MIC: 40 µg/mL (≈ 124 µM)
Micrococcus luteus
  MIC: 50 µg/mL (≈ 155 µM)
Rhodococcus equi
  MIC: 40 µg/mL (≈ 124 µM)
Escherichia coli
  MIC: 40 µg/mL (≈ 124 µM)
S. falcium
  MIC: 120 µg/mL (≈ 371 µM)
Staphylococcus aureus
  MIC: 20 µg/mL (≈ 61.9 µM)

## CC(=O)c1ccccc1OCC=C(C)C [Compound L1, 1-[2-(3-methylbut-2-enyloxy)phenyl]ethanone]
Lung NCI-460
  ED50 (effective dosage which killed 50% of the human cancer cells): 25.0 µg/mL
  cytocidal activity: cytocidal activity
[2]
  ED50 (effective dosage which killed 50% of the human cancer cells): 45.0 µg/mL
[2]; UACC-62
  cytocidal activity: cytocidal activity
[1]; against all tested cell lines
  cytostatic activity (inhibition of cell growth): cytostatic activity
E. falcium
  MIC: 250 µg/mL (≈ 1220 µM)
B. subtilis
  MIC: 500 to 1000 µg/mL (≈ 2450 to 4900 µM)
Salmonella choterasuis
  MIC: 250 µg/mL (≈ 1220 µM)
Micrococcus luteus
  MIC: 250 to 500 µg/mL (≈ 1220 to 2450 µM)
Rhodococcus equi
  MIC: > 1000 µg/mL
Escherichia coli
  MIC: > 1000 µg/mL
Staphylococcus aureus
  MIC: 500 µg/mL (≈ 2450 µM)
Candida albicans
  MIC: 60 µg/mL (≈ 294 µM)
Mamma (breast) MCF-7
  ED50 (effective dosage which killed 50% of the human cancer cells): 25.0 µg/mL

## CC(=O)c1cc(CC=C(C)C)ccc1O [Compound L2]
Lung NCI-460
  ED50 (effective dosage which killed 50% of the human cancer cells): 9.0 µg/mL
[2]
  ED50 (effective dosage which killed 50% of the human cancer cells): 4.2 µg/mL
[1]; at concentrations ranging between 0.5 and 250 μg/ml
  activity on all cell lines: very strong activity
E. falcium
  MIC: 500 to 1000 µg/mL (≈ 2450 to 4900 µM)
B. subtilis
  MIC: 500 to 1000 µg/mL (≈ 2450 to 4900 µM)
Salmonella choterasuis
  MIC: 500 to 1000 µg/mL (≈ 2450 to 4900 µM)
Micrococcus luteus
  MIC: 500 to 1000 µg/mL (≈ 2450 to 4900 µM)
Rhodococcus equi
  MIC: > 1000 µg/mL
Escherichia coli
  MIC: 50 µg/mL (≈ 245 µM)
Staphylococcus aureus
  MIC: > 1000 µg/mL
Candida albicans
  MIC: 50 µg/mL (≈ 245 µM)
Mamma (breast) MCF-7
  ED50 (effective dosage which killed 50% of the human cancer cells): 6.0 µg/mL
WI38 (fibroblasts)
  activity against fibroblasts: not active against fibroblasts
WI38 (fibroblasts); listed as 1-[2-Hydroxy-5-(3-methylbut-2-enyl)ethanone
  activity against fibroblasts: without damaging the fibroblasts

## CC(=O)c1cc(CC=C(C)C)ccc1OCC=C(C)C [Compound L3, 1-[5-(3-methylbut-2-enyl)-2-(3-methylbut-2-enyloxy)phenyl]-ethanone]
E. falcium
  MIC: 500 to 1000 µg/mL (≈ 1840 to 3670 µM)
B. subtilis
  MIC: > 1000 µg/mL
Salmonella choterasuis
  MIC: > 1500 µg/mL
Micrococcus luteus
  MIC: 500 to 1000 µg/mL (≈ 1840 to 3670 µM)
Rhodococcus equi
  MIC: > 1000 µg/mL
Escherichia coli
  MIC: > 1000 µg/mL
Staphylococcus aureus
  MIC: > 1000 µg/mL
Candida albicans
  MIC: 900 µg/mL (≈ 3300 µM)

## C=CC(C)(C)c1cc(CC=C(C)C)cc(C(C)=O)c1O [LMK7, 1-[3-(1,1-dimethylallyl)-2-hydroxy-5-(3-methylbut-2-enyl)phenyl]-ethanone]
Lung NCI-460
  cytocidal activity: did not, however, exhibit any cytocidal activity
[1]; against all tested cell lines
  concentration at which cytostatic activity begins: 25 µg/mL

## CC(=O)c1ccc(OCC=C(C)C)cc1 [LP1, 1-[4-(3-methylbut-2-enyloxy)phenyl]ethanone]
other
  melting point: 47 °C
[1]; against all tested cell lines
  concentration at which cytocidal activity begins: 250 µg/mL
  concentration at which cytostatic activity begins: 25 µg/mL
E. faecium
  MIC: > 1500 µg/mL
B. subtilis
  MIC: > 1500 µg/mL
Salmonella choterasuis
  MIC: 120 to 250 µg/mL (≈ 587 to 1220 µM)
S. epidermides
  MIC: 60 to 120 µg/mL (≈ 294 to 587 µM)
Micrococcus luteus
  MIC: > 1500 µg/mL
Rhodococcus equi
  MIC: > 1500 µg/mL
Escherichia coli
  MIC: > 1500 µg/mL
S. falcium
  MIC: > 1500 µg/mL
Staphylococcus aureus
  MIC: > 1500 µg/mL
Candida albicans
  MIC: > 1500 µg/mL
